{
  "source": "patent US9777054B2",
  "about": "“Soluble fibrin inhibitory peptides and uses thereof” (ENSION INC., priority 2006, dated 2017)",
  "key": {"A375 cells": {"tested_on": "A375 cells", "assay": "Monocyte adherence to tumor cells under flow conditions (FCS2 perfusion stage incubator)", "type": "cell-based, human", "description": "Human peripheral blood monocytes, isolated by density centrifugation and adherence were labeled with the carbocyanine dye (DiI, C18; Molecular Probes, Eugene, Oreg.). They were passed across adherent soluble fibrin treated or untreated tumor cells at a shear force corresponding to that present in small blood capillaries for 1 h (FIGS. 7A and 7B).\nThe number of tumor cells and adherent monocytes were counted in the images and leukocyte adherence was expressed as the number of leukocytes per tumor cell.\nLyophilized murine anti-human monoclonal blocking antibodies directed against αLβ2 (clone 25.3) and CD54 (clone 84H10) were obtained from Beckman-Coulter (Miami, Fla.), as were purified immunoglobulin matched isotypic controls (IgG1 (mouse) Clone 679.1Mc7). Blocking monoclonal anti-£\\M£]2 (clone ICRF44) was obtained from PharMingen (BD Biosciences, San Jose, Calif.). All antibody inhibition experiments were performed using pre-incubation of target cells with 5 μg antibody/106 cells. Experiments were performed in triplicate wells and the results were expressed as the mean+SD for three separate experiments).\nTo simulate the fluid shear stresses present in vivo, coverslips containing Calcein AM labeled, adherent A375 were loaded into the FCS2 stage incubator (Bioptechs Inc., Butler, Pa.) and mounted on the stage of a Leica DMIRB inverted fluorescence microscope equipped with a Hamamatsu Color Chilled 3CCD camera (C5810 model) attached to a computer for data acquisition.\nThe FCS2 incubator is a closed near-laminar flow, temperature-controlled perfusion chamber which facilitates direct observation and scanning of the cells on the coverslip during perfusion with solutions or cell suspensions. It was designed to maintain accurate thermal control and allow high-volume near-laminar flow perfusion. A fluid pathway was formed (Dimensions 0.5 mm×14 mm×25 mm) by separating the microaqueduct slide from the coverslip containing cells with a single silicone gasket with a rectangular bore, generating nearlaminar flow conditions during perfusion. The stage incubator was initially connected to a peristaltic pump on the afferent side using 0.062 inch bore S/P medical grade silicone tubing (Fisher Scientific, Suwanee, Ga.), with a three way in-line tap closed to the incubator inlet. The efferent side was connected to waste. After connection of the electronic temperature control, the coverslips were perfused with RPMI to briefly buffer the cells at 37° C. for fifteen minutes (flow rate of 0.5 ml/min). The inlet was then connected to the tube containing the appropriately treated monocyte suspension (3 mL). The efferent tubing was also connected to the same tube, and Di-I (Gant et al., 1992) labelled monocytes were recirculated across the tumor cells for 1 h, after which, the tubing was set up to the initial configuration and the cells were again washed with RPMI for 10 min to remove unbound monocytes.\nIndividual still images in five randomly chosen fields of view were captured and stored on the computer. The number of monocytes (red) and tumor cells (green) were counted in each field of view and the mean monocyte/tumor cell ratio was calculated. The wall shear stress was calculated using the momentum balance for a Newtonian fluid. The viscosity of water at 37° C. was used as an approximation of the viscosity of the buffer used (RPMI 1640; 0.007 poise). As described in the following equation, the wall shear stress experienced by the monolayer is equal to: T=3 μQ/2a^2b, where T=wall shear stress, μ=coefficient of viscosity (0.007 Poise), Q=volumetric flow rate (0.0083 cm3/s), a=half channel height (0.025 cm), and b=channel width (1.5 cm). The wall shear rate is given by T/μ. […]"}, "fibrinogen": {"target": "T1, fibrinogen (Homo sapiens, UniProt P02679)", "T1 construct": "purchased American Diagnostica Inc., Greenwich, Conn", "T1 sequence (P02679 27-437 isoform P02679-2 limits assumed)": "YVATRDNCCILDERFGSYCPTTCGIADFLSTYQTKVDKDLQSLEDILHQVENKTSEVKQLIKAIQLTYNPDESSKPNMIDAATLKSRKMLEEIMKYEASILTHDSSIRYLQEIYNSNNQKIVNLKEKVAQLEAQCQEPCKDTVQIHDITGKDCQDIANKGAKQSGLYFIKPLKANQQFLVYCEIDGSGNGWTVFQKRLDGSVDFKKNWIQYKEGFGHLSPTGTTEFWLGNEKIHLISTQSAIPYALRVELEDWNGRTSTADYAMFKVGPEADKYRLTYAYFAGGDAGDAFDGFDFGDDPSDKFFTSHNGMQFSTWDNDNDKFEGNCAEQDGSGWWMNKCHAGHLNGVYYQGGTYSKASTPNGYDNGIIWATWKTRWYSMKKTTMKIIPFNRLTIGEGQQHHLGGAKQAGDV", "T1 sequence (P02671 20-629 partner limits assumed)": "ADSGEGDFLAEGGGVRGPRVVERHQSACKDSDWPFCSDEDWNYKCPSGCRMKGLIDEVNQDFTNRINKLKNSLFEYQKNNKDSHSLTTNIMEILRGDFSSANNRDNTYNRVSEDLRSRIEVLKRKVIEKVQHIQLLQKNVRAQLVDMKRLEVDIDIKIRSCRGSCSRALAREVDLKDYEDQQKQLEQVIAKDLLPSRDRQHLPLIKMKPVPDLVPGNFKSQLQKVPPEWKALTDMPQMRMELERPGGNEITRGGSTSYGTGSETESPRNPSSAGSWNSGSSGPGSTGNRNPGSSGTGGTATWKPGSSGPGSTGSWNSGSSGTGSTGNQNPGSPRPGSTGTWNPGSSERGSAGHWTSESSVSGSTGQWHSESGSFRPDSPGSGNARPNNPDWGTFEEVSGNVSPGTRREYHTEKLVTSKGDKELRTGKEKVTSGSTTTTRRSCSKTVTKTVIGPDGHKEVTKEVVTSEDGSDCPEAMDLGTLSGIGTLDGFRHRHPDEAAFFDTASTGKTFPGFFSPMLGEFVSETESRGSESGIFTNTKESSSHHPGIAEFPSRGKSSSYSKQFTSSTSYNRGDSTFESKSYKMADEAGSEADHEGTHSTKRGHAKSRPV", "T1 sequence (P02675 31-491 partner)": "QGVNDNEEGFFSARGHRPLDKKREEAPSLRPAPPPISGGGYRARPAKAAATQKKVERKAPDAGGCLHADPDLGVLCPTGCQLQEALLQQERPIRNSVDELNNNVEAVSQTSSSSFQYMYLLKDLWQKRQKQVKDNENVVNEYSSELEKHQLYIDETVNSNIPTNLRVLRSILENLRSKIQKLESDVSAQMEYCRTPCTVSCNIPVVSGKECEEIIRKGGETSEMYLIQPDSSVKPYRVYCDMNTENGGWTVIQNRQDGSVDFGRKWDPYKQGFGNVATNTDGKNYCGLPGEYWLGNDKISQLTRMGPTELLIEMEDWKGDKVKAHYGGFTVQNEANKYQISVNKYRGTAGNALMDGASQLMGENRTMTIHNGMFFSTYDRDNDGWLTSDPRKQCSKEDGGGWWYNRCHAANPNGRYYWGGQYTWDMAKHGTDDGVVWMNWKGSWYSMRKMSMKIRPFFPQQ", "assay": "Thrombin induced clotting of purified fibrinogen", "type": "biochemical", "settings": "fibrinogen 0.5 mg/ml, thrombin 0.125 U/ml, peptide 4 mmol/L, room temperature", "description": "Experiments were performed to determine if the specific fibrin(ogen) adherence inhibitors also affected (1) fibrinogen clotting in the presence of thrombin, or (2) normal coagulation in recalcified plasma.\nThrombin (0.625 μl (stock 100 U/ml) was added to RPMI 1640 medium containing 25 μl (stock 10 mg/ml) […] or in the presence of 4 mmol/L specific peptide or peptide combination in a total volume of 1 ml. The tubes were left at room temperature and clotting was determined by observed gelation of the solution every 30 s, and the approximate clotting time was recorded. An additional control was also tested in which the fibrin polymerization inhibitor GPRP-NH2 was added to fibrinogen in the presence of P1-P4 prior to thrombin addition. The tube was left at room temperature to determine if clotting was observed."}, "[1]": {"settings": "sFn treated with single peptide, incubated with one cell type (P3 tumor cells / P4 monocytes), other cell type untreated"}, "[2]": {"settings": "one cell type treated with peptide only (P1 tumor cells / P2 monocytes), the other cell type with sFn"}, "[3]": {"settings": "one cell type treated with single peptide then sFn (P1 A375 / P2 monocytes), other cell type with sFn (Bars 4, 5)"}, "[4]": {"settings": "effector and tumor cells both pre-treated with single component of the sFn mixture"}},
  "note": "Entries after “also recorded” stand apart in the source; their conditions may differ. No end group written: not given here.",
  "data": [
    {"substance": "Gly-Pro-Arg-Pro-amide (GPRP-NH2) [reference compound]", "values": [
      {"measurement": "effect on monocyte adherence", "setting": "A375 cells; effector and tumor cells both pre-treated with single component of the sFn mixture, listed as GPRP", "value": "did not significantly inhibit adherence"},
      {"measurement": "effect on monocyte adherence", "setting": "A375 cells; effector and tumor cells both pre-treated with single component of the sFn mixture, listed as GPRPNH2", "value": "no significant (P>0.05 compared to untreated cell adherence) inhibition was observed"},
      {"measurement": "clotting time", "setting": "fibrinogen", "value": "> 15", "unit": "min"}
    ]},
    {"substance": "KFGDPLGYEDVIPEADREG (CHAIN peptide comprising the soluble fibrin protein-binding domain in soluble fibin) [Peptide P4]", "values": [
      {"measurement": "inhibition of monocyte adherence", "setting": "A375 cells; sFn pre-treated with P4 and incubated with monocytes, tumor cells incubated with sFn (Bar 7)", "value": "no inhibition was observed"},
      {"measurement": "inhibition of monocyte adherence", "setting": "A375 cells; [1]", "value": "no inhibition was observed"}
    ]},
    {"substance": "KVILPRGGSVLVTC (CHAIN peptide comprising amino acids 8-21 on the ICAM-1 first immunoglobulin domain) [Peptide P3]", "values": [
      {"measurement": "inhibition of monocyte adherence", "setting": "A375 cells; [1]", "value": "little or no inhibition was observed"}
    ]},
    {"substance": "NNQKIVNLKEKVAQLEA (CHAIN peptide comprising the cell-binding domain in soluble fibin.) [Peptide P1]", "values": [
      {"measurement": "effect on monocyte adherence", "setting": "A375 cells; [2]", "value": "Inhibition was still observed; also recorded: inhibited adherence to a similar level to that of sFn treatment of both cells"},
      {"measurement": "inhibition of monocyte adherence", "setting": "A375 cells; [3]", "value": "inhibition was still observed"}
    ]},
    {"substance": "YKSMKKTTMKIIPFNRLTIF (CHAIN peptide comprising the cell-binding domain in soluble fibin.) [Peptide P2]", "values": [
      {"measurement": "effect on monocyte adherence", "setting": "A375 cells; [2]", "value": "Inhibition was also observed; also recorded: inhibited adherence to a similar level to that of sFn treatment of both cells"},
      {"measurement": "inhibition of monocyte adherence", "setting": "A375 cells; [3]", "value": "inhibition was still observed"}
    ]},
    {"substance": "fibrinogen [reference compound]", "values": [
      {"measurement": "effect on monocyte adherence", "setting": "A375 cells; [4]", "value": "no significant (P>0.05 compared to untreated cell adherence) inhibition was observed; also recorded: did not significantly inhibit adherence"}
    ]},
    {"substance": "thrombin [reference compound]", "values": [
      {"measurement": "effect on monocyte adherence", "setting": "A375 cells; [4]", "value": "no significant (P>0.05 compared to untreated cell adherence) inhibition was observed; also recorded: did not significantly inhibit adherence"}
    ]}
  ]
}
